We go through two compounds from PMC3169401, “Structure of fructose bisphosphate aldolase from Bartonella henselae bound to fructose 1,6-bisphosphate” (Acta Crystallographica Section F: Structural Biology and …, 2011).

In test [1] the target is T1, BhFBPA (Bartonella henselae fructose bisphosphate aldolase) (Bartonella henselae, UniProt Q8L207).
T1 construct: gene fbab; full length, 343 residues; E. coli BL21(DE3) R3 Rosetta; 39495 Da; homotetramer; residues 1-340 modelled
T1 sequence (Q8L207 1-343): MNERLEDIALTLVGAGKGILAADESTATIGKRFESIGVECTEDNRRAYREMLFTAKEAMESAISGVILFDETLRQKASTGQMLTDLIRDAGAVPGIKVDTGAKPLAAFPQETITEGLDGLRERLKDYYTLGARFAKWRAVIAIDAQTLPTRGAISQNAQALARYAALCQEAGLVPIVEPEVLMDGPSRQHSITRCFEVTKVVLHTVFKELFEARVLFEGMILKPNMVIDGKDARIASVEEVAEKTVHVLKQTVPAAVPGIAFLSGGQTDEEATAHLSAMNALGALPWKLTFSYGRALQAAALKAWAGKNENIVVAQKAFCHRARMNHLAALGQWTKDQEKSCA
The test is described as follows: X-ray crystal structure of the complex ([…] A, cocrystallization). The class given is binding. To be noted: covalent; Schiff base of C2 of linear FBP with Lys223 at the active site; 10 mM FBP, pH 8.5, 290 K.

The target in test [2] is Bartonella henselae fructose bisphosphate aldolase (Bartonella henselae). The test is described as follows: crystal structure; cocrystallised with 10 mM fructose 1,6-bisphosphate, vapor diffusion at 290 K, 0.2 M sodium acetate, 0.1 M Tris pH 8.5, 30% PEG 4000; four monomers in the asymmetric unit; 2.35 A.

In the case of `O=P(O)(O)OC[C@H]1OC(O)(COP(=O)(O)O)[C@@H](O)[C@@H]1O` (some centres unmarked) [fructose 1,6-bisphosphate], the “X-ray crystal structure of the complex (2.35 A, cocrystallization)” value in test [1] is recorded as “This structure has clear electron density for FBP bound at the active site”.

Broadly, the stoichiometry N is the number of molecules, sites or subunits per partner or assembly. In test [2], “Bartonella henselae fructose bisphosphate aldolase (enzyme)” registered a stoichiometry N of 4.
